Patent publication US20110293745A1, “AURORA KINASE INHIBITORS” (SUNESIS PHARMACEUTICALS, INC., priority 2008, published 2011)

Assays:
HL-60 = assay: cells; settings: Homo sapiens, HL-60, 16 h, read-out: Cell Cycle EC50
Experimental: (§1) Cells were fixed, stained, and analyzed. The percentage of cells with ≧4N DNA content as a function of concentration was fit to estimate EC50. For cell cycle analysis on nonadherent cells or cells with irregular morphology (A2780, HL-60, CCRF-CEM, and HT-29), tumor cells were seeded in 12-well tissue culture plates overnight at 37° C. […] Cells were trypsinized, collected, stained with propidium iodide, and analyzed by flow cytometry.

H1299 = assay: cells; settings: Homo sapiens, NCI-H1299, 16 h, read-out: Cell Cycle EC50
Experimental: as §1

PC3 = assay: cells; settings: Homo sapiens, PC-3, 16 h, read-out: Cell Cycle EC50
Experimental: as §1

MDA-MB-231 = assay: cells; settings: Homo sapiens, MDA-MB-231, 16 h, read-out: Cell Cycle EC50
Experimental: as §1

Calu-6 = assay: cells; settings: Homo sapiens, Calu-6, 16 h, read-out: Cell Cycle EC50
Experimental: as §1

HeLa = assay: cells; settings: Homo sapiens, 16 h, read-out: Cell Cycle EC50
Experimental: as §1

CCRF-CEM = assay: cells; settings: Homo sapiens, 16 h, read-out: Cell Cycle EC50
Experimental: as §1

A2780 = assay: cells; settings: Homo sapiens, A2780, 16 h, read-out: Cell Cycle EC50
Experimental: as §1

HCT116 = assay: cells; settings: Homo sapiens, HCT-116, 16 h, read-out: Cell Cycle EC50
Experimental: as §1

A375 = assay: cells; settings: Homo sapiens, A-375, 16 h, read-out: Cell Cycle EC50
Experimental: as §1

[1] = tested on: PC3 prostate tumor xenograft; assay: In vivo efficacy, mouse xenograft
Experimental: (§2) Percent TGI is then calculated with the following equation: […]
(§3) Time To Endpoint (TTE) was calculated for each individual animal to reach the predetermined study end point where the tumor volume becomes 1200 mm^3 or 10% of body weight or a greater than 20% body weight loss for two sequential measurements. The TTE is calculated and the median value is recorded for the group. Tumor Growth Delay (TGD) is then calculated with the following equation: […]
PC3 prostate tumor fragments (1 mm^3) were implanted subcutaneously in the right hind flank of mice. After 21 days, when tumors reached a volume of approximately 120 mm^3, animals were weighed, randomized by tumor volume (l×w×h×0.52), and assigned to the various study groups before initial dosing.

panel of 219 kinases = settings: read-out: IC50 of the remaining 197 kinases
[2] = tested on: A2780 ovarian cancer xenograft; assay: In vivo efficacy, mouse xenograft
Experimental: as §2, §3
A2780 ovarian cancer cells [200 μL of a 2.5×10^7 cells/mL suspension (1:1 DPBS with cells:Matrigel)] were implanted subcutaneously in the right hind flank of mice. After 7 days, when tumors reached an average volume of approximately 130 mm^3, animals were weighed, randomized by tumor volume (l×w×h×0.52), and assigned to the various study groups before initial dosing.

HT-29 = assay: cells; settings: Homo sapiens, HT-29, 16 h, read-out: Cell Cycle EC50
Flt4 = biological target: T1, Flt4 (Homo sapiens, UniProt P35916); assay: Radiometric kinase assay (Upstate panel); assay type: biochemical
T1 construct: purchased Upstate Biotechnology, Dundee, UK
T1 sequence (P35916 25-1363): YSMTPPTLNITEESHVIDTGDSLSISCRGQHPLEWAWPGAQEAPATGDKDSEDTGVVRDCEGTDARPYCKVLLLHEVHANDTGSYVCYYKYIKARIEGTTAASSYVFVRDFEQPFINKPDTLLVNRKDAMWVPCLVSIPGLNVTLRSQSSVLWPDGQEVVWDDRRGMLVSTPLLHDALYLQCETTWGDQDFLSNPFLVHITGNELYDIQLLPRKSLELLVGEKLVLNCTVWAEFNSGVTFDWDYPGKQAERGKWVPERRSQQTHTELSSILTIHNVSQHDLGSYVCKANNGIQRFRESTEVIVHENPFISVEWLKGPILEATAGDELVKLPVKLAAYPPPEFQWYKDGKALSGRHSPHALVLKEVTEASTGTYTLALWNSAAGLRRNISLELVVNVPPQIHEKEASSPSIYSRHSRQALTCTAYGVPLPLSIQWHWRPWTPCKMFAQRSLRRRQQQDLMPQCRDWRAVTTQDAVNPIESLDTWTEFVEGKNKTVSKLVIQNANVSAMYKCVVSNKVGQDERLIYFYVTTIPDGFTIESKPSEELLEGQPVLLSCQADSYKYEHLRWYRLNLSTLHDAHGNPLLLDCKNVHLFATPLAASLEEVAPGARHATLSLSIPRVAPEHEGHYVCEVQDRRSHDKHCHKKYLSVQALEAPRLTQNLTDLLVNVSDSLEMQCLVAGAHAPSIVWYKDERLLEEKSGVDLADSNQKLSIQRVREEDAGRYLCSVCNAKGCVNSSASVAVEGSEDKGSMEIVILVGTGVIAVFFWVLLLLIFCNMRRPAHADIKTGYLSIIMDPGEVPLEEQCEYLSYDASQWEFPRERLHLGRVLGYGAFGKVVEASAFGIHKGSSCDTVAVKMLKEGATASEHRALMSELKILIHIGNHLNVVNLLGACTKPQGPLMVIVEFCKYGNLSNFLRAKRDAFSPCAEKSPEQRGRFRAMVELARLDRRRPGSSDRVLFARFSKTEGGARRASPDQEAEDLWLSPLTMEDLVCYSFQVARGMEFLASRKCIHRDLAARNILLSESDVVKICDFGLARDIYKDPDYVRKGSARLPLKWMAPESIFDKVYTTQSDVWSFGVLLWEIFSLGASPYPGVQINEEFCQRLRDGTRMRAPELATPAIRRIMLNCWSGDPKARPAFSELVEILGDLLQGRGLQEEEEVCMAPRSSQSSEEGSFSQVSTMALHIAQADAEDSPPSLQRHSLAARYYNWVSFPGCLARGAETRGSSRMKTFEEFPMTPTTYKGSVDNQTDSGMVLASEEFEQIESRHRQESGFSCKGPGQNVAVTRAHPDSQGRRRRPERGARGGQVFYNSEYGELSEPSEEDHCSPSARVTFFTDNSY

[3] = tested on: variety of mice xenograft models representing a range of tissue types; assay: In vivo efficacy across xenograft models (summary); settings: dose-dependent, well tolerated doses
[4] = Mass balance, elimination, autoradiography and metabolites with 14C-label; assay type: in vivo; settings: male rats, 14C-labeled Compound 1 IV bolus 50 mg/kg, total radioactivity
Experimental: Treated rats were further cannulated in femoral vein and the bile duct to allow for the evaluation of the rate and extent of elimination of total radioactivity from urine, bile, and feces. Total radioactivity was analyzed by liquid scintillation counting.
Preparation of samples for metabolite analysis was as follows. Plasma samples were extracted by protein precipitation with acetonitrile. The extraction was preformed by adding ice cold acetonitrile (3 parts) to plasma (1 part v/v). After the samples were mixed using a benchtop vortex mixer the samples were centrifuged, the supernatants were transferred to silanized glass tubes, evaporated to dryness under nitrogen, and reconstituted in 50/50 acetonitrile/water solution. Urine samples were directly injected. Bile samples containing radioactivity were diluted in water prior to injection.
Metabolites in plasma, urine, and bile were separated on a reverse phase HPLC column with an Agilent 1000 system (Santa Clara, Calif.).

[5] = Pharmacokinetics, single bolus intravenous injection; assay type: in vivo, Sprague-Dawley rats; settings: Sprague-Dawley, rat, plasma, 5 mg/kg
Excerpt: Pharmacokinetic parameters were estimated using noncompartmental analysis within WinNonlin v. 4.1. Quantification of Compound 2 was done by HPLC-MS/MS after extraction from plasma with acetonitrile. […] For rising dose experiments measuring exposure for each species, sets containing several animals were singly dosed at a given dose. Results from single-dose experiments are shown in FIG. 10A, Table 43, and in FIG. 10B and Table 44, respectively. […] C0 is initial concentration extrapolated to time zero. AUCINF is area under the plasma-concentration time curve from time zero extrapolated to the infinite time. CL is clearance; Vss is steady state volume of distribution. T1/2 is half-life.

CS(=O)(=O)O.O=C(Nc1cccc(Cl)c1)Nc1ncc(CCNc2ncnc3ccsc23)s1 [Compound 1, 1-(3-chlorophenyl)-3-{5-[2-(thieno[3,2-d]pyrimidin-4-ylamino)ethyl]thiazo}-urea]
EC50 (HL-60): 7 nM
EC50 (H1299): 80 nM
EC50 (PC3): 11 nM
EC50 (MDA-MB-231): 30 nM
EC50 (Calu-6): 13 nM
EC50 (HeLa): 290 nM
EC50 (CCRF-CEM): 4.2 nM
EC50 (A2780): 6.1 nM
EC50 (HCT116): 34 nM
EC50 (A375): 93 nM
% TGI ([1]; 42.5 mg/kg biw × 3): 39.5%
TGD ([1]; 42.5 mg/kg biw × 3): 0 days
% TGI ([1]; 85 mg/kg biw × 3): 63.6%
TGD ([1]; 85 mg/kg biw × 3): 12 days
% TGI ([1]; 170 mg/kg biw × 3): 67.5%
TGD ([1]; 170 mg/kg biw × 3): 25 days
IC50 (panel of 219 kinases): ≥ 1000 nM
% TGI ([2]; 42.5 mg/kg biw × 3): 0%
TGD ([2]; 42.5 mg/kg biw × 3): 0 days
% TGI ([2]; 85 mg/kg biw × 3): 9.8%
TGD ([2]; 85 mg/kg biw × 3): 3.5 days
% TGI ([2]; 170 mg/kg biw × 3): 53.8%
TGD ([2]; 170 mg/kg biw × 3): 9 days
EC50 (HT-29): 12 nM
IC50 (Flt4): 0.014 µM
tumor growth inhibition [3]: 58-99%

O=C(Nc1cccc(Cl)c1)Nc1ncc(CCNc2ncnc3ccsc23)s1 [Compound 2, 1-(3-chlorophenyl)-3-{5-[2-(thieno[3,2-d]pyrimidin-4-ylamino)ethyl]thiazol-2-yl}-urea]
Mean cumulative % recovery ([4]; Bile, interval 0-8 hr): 39.7%
Mean cumulative % recovery ([4]; Bile, interval 8-24 hr): 68.5%
Mean cumulative % recovery ([4]; Bile, interval 24-48 hr): 69.5%
Mean cumulative % recovery ([4]; Cumulative Total, 24 hr): 89.7%
Mean cumulative % recovery ([4]; Cumulative Total, 48 hr): 92.3%
Mean cumulative % recovery ([4]; Feces, interval 0-24 hr): 11.8%
Mean cumulative % recovery ([4]; Feces, interval 24-48 hr): 13.2%
Mean cumulative % recovery ([4]; Urine, interval 0-8 hr): 6.1%
Mean cumulative % recovery ([4]; Urine, interval 8-24 hr): 9.4%
Mean cumulative % recovery ([4]; Urine, interval 24-48 hr): 9.6%
AUC(0-inf) [5]: 2100 ng·h/mL
C0 [5]: 3600 ng/mL
clearance [5]: 41.2 mL/min/kg
half-life [5]: 48 min
Vd ([5]; read-out: Vss): 1.8 L/kg
